Results published in patent US8030286B2, “Methods and means for increasing resistance to cell damage” (University of Medicine and Dentistry of New Jersey, priority 2004, dated 2011).

Assays:
[1] = system: wild type mouse embryonic fibroblasts (MEFs); assay: Cell death in phase-contrast images, wild type MEFs; assay type: cell-based; conditions: 1.6 μM doxorubicin, 24 hours
eEF2K-deficient cells = assay: Cell death in phase-contrast images, eEF2K-deficient MEFs; assay type: cell-based, mouse; conditions: 1.6 μM doxorubicin, 24 hours
eEF2 kinase−/− MEFs = assay: MTT viability assay, eEF2 kinase knockout MEFs; assay type: cell-based, mouse
Method: (§1) MTT Survival Assay: MEFs used in this study (2×10^3 cells per well of a 96 well plate) are incubated in the presence of indicated drugs for 24 hours. Cell viability is determined using the standard MTT assay^30. Each experiment is repeated three times for each drug and each cell line using three parallel wells for each drug concentration. For colony formation assay cells are treated with indicated drugs for 24 hours and replated with complete DMEM at low density (500 cells per well in 6-well plate) in duplicate. After 10 days colonies are stained with 10 mg/ml methylene blue (Sigma Inc.) in 50% methanol.
(§2) The possible correlation between activation of eEF2 kinase and the resultant phosphorylation of eEF2 and Ca^2+ ionophore-induced cell death is addressed by comparing the viability of wild type and eEF2 kinase knockout mouse embryonic fibroblasts (MEFs) after incubation of each with different concentrations of ionomycin.

eEF2 kinase+/+ MEFs = assay: MTT viability assay, wild type MEFs; assay type: cell-based, mouse
Method: as §1, §2

## COc1cccc2c1C(=O)c1c(O)c3c(c(O)c1C2=O)C[C@@](O)(C(=O)CO)C[C@@H]3O[C@H]1C[C@H](N)[C@H](O)[C@H](C)O1 [doxorubicin]
[1]
  cell death: significant cell death
eEF2K-deficient cells
  cell death: much less cell death

## Cc1ccc(C(=O)Cn2c3c(sc2=N)CCCC3)cc1 [PFTα, pifithrin α]
eEF2 kinase−/− MEFs; DOX 24 h, MTT assay
  effect of p53 inactivation on drug sensitivity (DOX): only slightly affected
eEF2 kinase+/+ MEFs; DOX 24 h, MTT assay
  effect of p53 inactivation on drug sensitivity (DOX): strongly decreasing sensitivity

## C[C@H](CCC(=O)O)C[C@H](C)C[C@H](C)C(=O)/C=C(\O)[C@H](C)C[C@H](C)C/C=C/[C@@H](C)[C@@H](O)[C@@H](C)[C@@H](O)C[C@@H]1CC[C@@](C)([C@H]2CC[C@@](C)([C@@H](C)O)O2)O1 [ionomycin]
eEF2 kinase−/− MEFs; same concentrations of ionomycin (1 to 10 μM), 24 h
  effect on the viability: virtually no effect
eEF2 kinase+/+ MEFs; 10 μM ionomycin, incubation for 24 h
  cells die: approximately 70%
eEF2 kinase+/+ MEFs; increasing concentrations of ionomycin from 1 to 10 μM, 24 h
  cell viability: progressive decrease of cell viability
